Data as given in patent US10253002B2, “Compounds and methods of treating infections” (Neoculi Pty Ltd., priority 2013, dated 2019).
Values after ≈ are worked out from the molar mass of the structure shown. Values joined by “and” are separate entries in the source; they are usually repeats but may differ in a detail not shown here. Equal entries are not always repeated. Where two headings read alike, the source gives them in different places.

Columns and labels:
MRSA = assay: Broth microdilution MIC, Example 7 (NCL812 and analogues); type: cell-based, Staphylococcus aureus; settings: for activity against MRSA among analogues: MIC testing, two MRSA strains; for MIC: Staphylococcus aureus; for MIC / MRSA: MRSA
In short: (§1)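 Turbidity read visually and then at 600 nm defined the MIC (μg/ml), comparing drug-containing wells with a growth-control well lacking antimicrobial. Testing followed the CLSI broth microdilution method, in duplicate, using two strains per organism group.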

VRE = assay: as above; type: cell-based, Enterococcus spp.; settings: for MIC: Enterococcus; for MIC / VRE: VRE; for activity against VRE among analogues: MIC testing, two VRE strains
In short: as §1

Escherichia coli = assay: as above; type: cell-based; settings: 24 hours; for MIC: Escherichia coli
Pseudomonas aeruginosa = assay: as above; type: cell-based; settings: for MIC: Pseudomonas aeruginosa, 24 h
[1] = Bioassay ranking of the analogues tested; settings: M + R (MRSA and VRE combined)
[2] = MRSA 2, 24 hours, duplicate lines per compound
[3] = 24 h, read-out: MIC (μg/ml) at 24 hours, MRSA 1, MRSA 1, 24 hours, duplicate lines per compound
[4] = 24 h, read-out: MIC (μg/ml) at 24 hours, MRSA 2, MRSA 2, 24 hours, duplicate lines per compound
[5] = bioassay ranking, read-out: MRSA
[6] = 24 h, read-out: MIC (μg/ml) at 24 hours, VRE 1, VRE 1, 24 hours, duplicate lines per compound
[7] = 24 h, read-out: MIC (μg/ml) at 24 hours, VRE 2, VRE 2, 24 hours, duplicate lines per compound
[8] = bioassay ranking, read-out: VRE
[9] = VRE 1, 24 hours, duplicate lines per compound
[10] = VRE 2, 24 hours, duplicate lines per compound
[11] = read-out: MIC (μg/ml) at 24 hours, E. coli, duplicate lines per compound
[12] = read-out: MIC (μg/ml) at 24 hours, P. aeruginosa, 24 hours, duplicate lines per compound
[13] = 24 h, read-out: MIC (μg/ml) at 24 hours MRSA 1, MRSA 1, 24 hours
[14] = 24 h, read-out: MIC (μg/ml) at 24 hours MRSA 2, MRSA 2, 24 hours
[15] = 24 h, read-out: MIC (μg/ml) at 24 hours VRE 1, VRE 1, 24 hours
[16] = 24 h, read-out: MIC (μg/ml) at 24 hours VRE 2, VRE 2, 24 hours
[17] = read-out: MIC (μg/ml) at 24 hours E. coli, E. coli
[18] = read-out: MIC (μg/ml) at 24 hours P. aeruginosa, P. aeruginosa, 24 hours
[19] = isolate MRSA 1, 24 hours, 1st and 2nd replicate rows
[20] = isolate MRSA 2, 24 hours, 1st and 2nd replicate rows
[21] = isolate VRE 1, 24 hours, 1st and 2nd replicate rows
[22] = isolate VRE 2, 24 hours, 1st and 2nd replicate rows
[23] = 24 hours, 1st and 2nd replicate rows

MIC (μg/ml) at 24 hours, MRSA 2 (MRSA; [2]) | MIC (MRSA; [3]) | MIC (MRSA; [4]) | MIC (MRSA; [5]) | MIC (VRE; [6]) | MIC (VRE; [7]) | MIC (VRE; [8]) | MIC (Escherichia coli; [11]) | MIC (Pseudomonas aeruginosa; [12]) | Structure (SMILES) | activity against MRSA among analogues (MRSA) | activity against VRE among analogues (VRE) | M + R [1] | MRSA (MRSA; bioassay ranking) | VRE (VRE; bioassay ranking) | other results
8 µg/mL | 4 µg/mL | 16 µg/mL | 8 µg/mL | 4 µg/mL | 4 µg/mL | 3 µg/mL | > 128 µg/mL | > 128 µg/mL | Cl.N=C(N/N=C/c1ccc(Cl)cc1)N/N=C/c1ccc(C(F)(F)F)cc1F [NCL078] | greatest activity | greatest activity | 5.5 µg/mL |  |  | MIC (μg/ml) at 24 hours, VRE 1 (VRE; [9]): 2 µg/mL; MIC (μg/ml) at 24 hours, VRE 2 (VRE; [10]): 2 µg/mL
8 µg/mL | 4 µg/mL | 4 µg/mL | 5 µg/mL | 2 µg/mL | 4 µg/mL | 3 µg/mL | > 128 µg/mL | > 128 µg/mL | Cl.N=C(N/N=C/c1ccc(F)cc1)N/N=C/c1ccc(Cl)cc1 [NCL079] | greatest activity | greatest activity | 4 µg/mL |  |  | 
4 µg/mL | 2 µg/mL | 8 µg/mL | 4 µg/mL | 2 µg/mL | 2 µg/mL | 2 µg/mL | > 128 µg/mL | > 128 µg/mL | Cl.N=C(N/N=C/c1ccc(Cl)cc1)N/N=C/c1ccc(Cl)cc1F [NCL084] | greatest activity | greatest activity | 3 µg/mL |  |  | 
 |  |  | 2 µg/mL |  |  | 16 µg/mL |  |  | C/C(=N\NC(=N)N/N=C(\C)c1ccc(C(C)(C)C)cc1)c1ccc(C(C)(C)C)cc1.Cl [NCL219] | greatest activity | greatest activity | 9 µg/mL |  |  | MIC (MRSA; [13]): 2 µg/mL; MIC (MRSA; [14]): 2 µg/mL; MIC (VRE; [15]): 16 µg/mL; MIC (VRE; [16]): 16 µg/mL; MIC (Escherichia coli; [17]): > 128 µg/mL; MIC (Pseudomonas aeruginosa; [18]): > 128 µg/mL
 |  |  |  |  |  |  |  |  | Cl.N=C(N/N=C/c1ccc(F)cc1)N/N=C/c1ccc(F)cc1 [NCL021] | greatest activity | greatest activity | 12 µg/mL | 16 µg/mL | 8 µg/mL | MIC (μg/ml) at 24 hours, MRSA 1 (MRSA; [19]): 16 µg/mL; MIC (μg/ml) at 24 hours, MRSA 2 (MRSA; [20]): 16 µg/mL; MIC (μg/ml) at 24 hours, VRE 1 (VRE; [21]): 8 µg/mL; MIC (μg/ml) at 24 hours, VRE 2 (VRE; [22]): 8 µg/mL; MIC (μg/ml) at 24 hours, E. coli (Escherichia coli; 1st and 2nd replicate rows): >128 µg/mL; MIC (μg/ml) at 24 hours, P. aeruginosa (Pseudomonas aeruginosa; [23]): >128 µg/mL
8 µg/mL and 4 µg/mL |  |  |  |  |  |  |  |  | C/C(=N\NC(=N)N/N=C/c1ccc(Cl)cc1)c1ccc(Cl)cc1.Cl [NCL081] | greatest activity | greatest activity | 3.75 µg/mL | 5 µg/mL | 2.5 µg/mL | MIC (μg/ml) at 24 hours, MRSA 1 (MRSA; MRSA 1, 24 hours, duplicate lines per compound): 4 µg/mL; MIC (μg/ml) at 24 hours, VRE 1 (VRE; [9]): 1 µg/mL; MIC (μg/ml) at 24 hours, VRE 2 (VRE; [10]): 4 µg/mL; MIC (μg/ml) at 24 hours, E. coli (Escherichia coli; E. coli, duplicate lines per compound): >128 µg/mL; MIC (μg/ml) at 24 hours, P. aeruginosa (Pseudomonas aeruginosa; P. aeruginosa, 24 hours, duplicate lines per compound): >128 µg/mL
 |  |  | 3 µg/mL (≈ 6.42 µM) |  |  |  |  |  | Nc1nc(N/N=C/c2ccc(C(F)(F)F)cc2)cc(N/N=C/c2ccc(C(F)(F)F)cc2)n1 [NCL221] | greatest activity | greatest activity | 33.5 µg/mL |  |  | MIC (MRSA; [13]): 4 µg/mL (≈ 8.56 µM); MIC (MRSA; [14]): 2 µg/mL (≈ 4.28 µM); MIC (VRE; [15]): 64 µg/mL (≈ 137 µM); MIC (VRE; [16]): 64 µg/mL (≈ 137 µM); MIC (Escherichia coli; [17]): > 128 µg/mL; MIC (Pseudomonas aeruginosa; [18]): > 128 µg/mL
 |  |  |  |  |  |  |  |  | Cc1cccc(C=NNC(=N)NN=Cc2cccc(C)c2)c1.Cl [NCL040] | greatest activity | greatest activity | 8 µg/mL | 8 µg/mL | 8 µg/mL | MIC (μg/ml) at 24 hours, MRSA 1 (MRSA; [19]): 8 µg/mL; MIC (μg/ml) at 24 hours, MRSA 2 (MRSA; [20]): 8 µg/mL; MIC (μg/ml) at 24 hours, VRE 1 (VRE; [21]): 8 µg/mL; MIC (μg/ml) at 24 hours, VRE 2 (VRE; [22]): 8 µg/mL; MIC (μg/ml) at 24 hours, E. coli (Escherichia coli; 1st and 2nd replicate rows): >128 µg/mL; MIC (μg/ml) at 24 hours, P. aeruginosa (Pseudomonas aeruginosa; [23]): >128 µg/mL
 |  |  |  |  |  |  |  |  | Cl.Cl.Nc1nc(N/N=C/C2CCCCC2)cc(N/N=C/C2CCCCC2)n1 [NCL203] | greatest activity | greatest activity | 44 µg/mL |  |  | MIC (μg/ml) at 24 hours, MRSA 1 (MRSA; MRSA 1, 24 hours): 32 µg/mL; MIC (μg/ml) at 24 hours, MRSA 2 (MRSA; MRSA 2, 24 hours): 64 µg/mL; MIC (μg/ml) at 24 hours, VRE 1 (VRE; VRE 1, 24 hours): 32 µg/mL and 64 µg/mL; MIC (μg/ml) at 24 hours, VRE 2 (VRE; VRE 2, 24 hours): 32 µg/mL; MIC (μg/ml) at 24 hours, E. coli (Escherichia coli; E. coli): >128 µg/mL; MIC (μg/ml) at 24 hours, P. aeruginosa (Pseudomonas aeruginosa; P. aeruginosa, 24 hours): >128 µg/mL
